For one assay, the target named is T1, human HDAC1 (Homo sapiens, UniProt Q13547).
T1 construct: made in house; host or cells: HeLa (ATCC CCL-2), mammalian cells
Nature of the assay: Homo sapiens HDAC1 inhibition assay (Fluor-de-Lys, enzymatic). As to conditions: human HDAC enzymatic assay; read-out: hHDAC IC50. The assay is classed as biochemical. The procedure, abridged:
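Fluorogenic deacetylation read-out: trypsin developer, supplemented with 2 μM final TSA as stop, releases fluorophore from deacetylated substrate.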

Assay [1] relates to Plasmodium falciparum 3D7. Kind of assay: P. falciparum growth inhibition assay (Pf-LDH). It counts as cell-based. The settings on record: Plasmodium falciparum. The procedure, abridged: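 Compounds were tested against 72 h cultures of the 3D7 strain (0.25% parasitemia, 2% hematocrit, 37° C, low-oxygen gas). Parasite growth was quantified as lactate dehydrogenase activity via NBT reduction, absorbance 650 nm, after freezing and thawing.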

Where [2] appears, read: Erythrocyte, P. falciparum 3D7 infected erythrocytes, 72 h incubation, PfLDH readout.

The values that follow come from US9365541B2, “Compounds for use in the treatment of parasitic diseases” (IRBM—SCIENCE PARK S.P.A., priority 2012, dated 2016).

A value given as a limit tells only on which side of the number the result lay.

T1 sequence (Q13547 whole entry): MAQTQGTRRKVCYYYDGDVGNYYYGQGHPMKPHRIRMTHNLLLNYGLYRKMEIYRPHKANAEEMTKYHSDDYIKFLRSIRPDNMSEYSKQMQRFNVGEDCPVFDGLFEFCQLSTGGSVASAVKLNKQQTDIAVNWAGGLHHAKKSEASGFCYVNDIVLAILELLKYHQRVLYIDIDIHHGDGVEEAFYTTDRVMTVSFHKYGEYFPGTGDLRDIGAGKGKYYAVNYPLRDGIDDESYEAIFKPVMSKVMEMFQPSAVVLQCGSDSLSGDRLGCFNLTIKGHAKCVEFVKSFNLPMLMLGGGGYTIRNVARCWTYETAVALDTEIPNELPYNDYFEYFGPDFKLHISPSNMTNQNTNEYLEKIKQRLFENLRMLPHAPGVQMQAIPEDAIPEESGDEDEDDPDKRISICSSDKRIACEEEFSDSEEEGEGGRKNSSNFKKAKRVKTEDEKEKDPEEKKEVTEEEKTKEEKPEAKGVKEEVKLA

As for `CNC(=O)CCCCC[C@H](NC(=O)c1nnc(C)o1)c1ncc(-c2ccc3ccccc3c2)[nH]1` [Entry 203, (S)-5-methyl-N-(7-(methylamino)-1-(5-(naphthalen-2-yl)-1H-imidazol-2-yl)-7-oxoheptyl)-1,3,4-oxadiazole-2-carboxamide], the IC50 on human HDAC1 was greater than 5 µM. This molecule registered an EC50 in assay [1] (setting [2]) of 1000 to 5000 nM.

`CNC(=O)CCCCC[C@H](NC(=O)C12CCN(CC1)CC2)c1ncc(-c2cc3ccccc3[nH]c2=O)[nH]1` [Entry 204, (S)-N-(7-(methylamino)-7-oxo-1-(5-(2-oxo-1,2-dihydroquinolin-3-yl)-1H-imidazol-2-yl)heptyl)quinuclidine-4-carboxamide]: the IC50 at human HDAC1 was 1 to 5 µM. The EC50 in assay [1] (setting [2]) was greater than 5000 nM.

For `CNC(=O)CCCCC[C@H](NC(=O)c1cncs1)c1ncc(-c2ccc(-c3ccccc3)s2)[nH]1` [Entry 205, (S)-N-(7-(methylamino)-7-oxo-1-(5-(5-phenylthiophen-2-yl)-1H-imidazol-2-yl)heptyl)thiazole-5-carboxamide], on human HDAC1, the IC50 was in the range of 1 to 5 µM. In assay [1] (setting [2]), this molecule gave an EC50 of 1000 to 5000 nM.

`CNC(=O)CCCCC[C@H](NC(=O)[C@@H]1CCCN2CCCC[C@H]12)c1ncc(-c2ccc3ccncc3c2)[nH]1` [Entry 206, (1R,9aR)-N-((S)-1-(5-(isoquinolin-7-yl)-1H-imidazol-2-yl)-7-(methylamino)-7-oxoheptyl)octa-hydro-1H-quinolizine-1-carboxamide]: the IC50 on human HDAC1 lay in the range of 1 to 5 µM. Moreover, in assay [1] (setting [2]), the EC50 is 1000 to 5000 nM.

In the case of `CNC(=O)CCCCC[C@H](NC(=O)Cc1ncccn1)c1ncc(-c2ccc3ccncc3c2)[nH]1` [Entry 207], the IC50 at human HDAC1 was greater than 5 µM. Moreover, the EC50 in assay [1] (setting [2]) lay in the range of 1000 to 5000 nM.

Regarding `CNC(=O)CCCCC[C@H](NC(=O)Cn1cc2ccccc2n1)c1ncc(-c2ccc3ccncc3c2)[nH]1` [Entry 208, (S)-7-(2-(2H-indazol-2-yl)acetamido)-7-(5-(isoquinolin-7-yl)-1H-imidazol-2-yl)-N-methyl-heptanamide], at human HDAC1, the half-maximal inhibitory concentration (IC50) is less than 1 µM. This molecule also registered an EC50 in assay [1] (setting [2]) of less than 1000 nM.

On to `CNC(=O)CCCCC[C@H](NC(=O)c1cscn1)c1ncc(-c2ccc(-c3ccn(C)n3)cc2)[nH]1` [Entry 209, (S)-N-(1-(5-(4-(1-methyl-1H-pyrazol-3-yl)phenyl)-1H-imidazol-2-yl)-7-(methylamino)-7-oxoheptyl)thiazole-4-carboxamide], for which, at human HDAC1, the IC50 is greater than 5 µM. The EC50 in assay [1] (setting [2]) is greater than 5000 nM.

With `CNC(=O)CCCCC[C@H](NC(=O)c1cnsc1)c1ncc(-c2ccc(-c3ccn(C)n3)cc2)[nH]1` [Entry 210], the IC50 at human HDAC1 is 1 to 5 µM. Also, the EC50 in assay [1] (setting [2]) was less than 1000 nM.

Turning to `CNC(=O)CCCCC[C@H](NC(=O)Cc1ncccn1)c1ncc(-c2ccc(-c3ccn(C)n3)cc2)[nH]1` [Entry 211], the IC50 at human HDAC1 is greater than 5 µM. Moreover, the EC50 in assay [1] (setting [2]) is greater than 5000 nM.

As to `CNC(=O)CCCCC[C@H](NC(=O)c1cnn(C)c1)c1ncc(-c2ccc(-c3ccn(C)n3)cc2)[nH]1` [Entry 212, (S)-1-methyl-N-(1-(5-(4-(1-methyl-1H-pyrazol-3-yl)phenyl)-1H-imidazol-2-yl)-7-(methylamino)-7-oxoheptyl)-1H-pyrazole-4-carboxamide], the IC50 at human HDAC1 is 1 to 5 µM. The molecule further returned an EC50 in assay [1] (setting [2]) of less than 1000 nM.

In the case of `CNC(=O)CCCCC[C@H](NC(=O)c1ccnn1C)c1ncc(-c2ccc(-c3ccn(C)n3)cc2)[nH]1` [Entry 213, (S)-1-methyl-N-(1-(5-(4-(1-methyl-1H-pyrazol-3-yl)phenyl)-1H-imidazol-2-yl)-7-(methylamino)-7-oxoheptyl)-1H-pyrazole-5-carboxamide], the IC50 on human HDAC1 is greater than 5 µM. In assay [1] (setting [2]), this molecule came in with an EC50 of 1000 to 5000 nM.

Turning to `CNC(=O)CCCCC[C@H](NC(=O)c1ccn(C(F)F)n1)c1ncc(-c2ccc(-c3ccn(C)n3)cc2)[nH]1` [Entry 214, (S)-1-(difluoromethyl)-N-(1-(5-(4-(1-methyl-1H-pyrazol-3-yl)phenyl)-1H-imidazol-2-yl)-7-(methylamino)-7-oxoheptyl)-1H-pyrazole-3-carboxamide], the IC50 at human HDAC1 was greater than 5 µM. In assay [1] (setting [2]), this molecule showed an EC50 of 1000 to 5000 nM.

For the molecule `CNC(=O)CCCCC[C@H](NC(=O)c1cc(C)nn1C)c1ncc(-c2ccc(-c3ccn(C)n3)cc2)[nH]1` [Entry 215, (S)-1,3-dimethyl-N-(1-(5-(4-(1-methyl-1H-pyrazol-3-yl)phenyl)-1H-imidazol-2-yl)-7-(methylamino)-7-oxoheptyl)-1H-pyrazole-5-carboxamide], the IC50 on human HDAC1 is greater than 5 µM. Also, the EC50 in assay [1] (setting [2]) lay within 1000 to 5000 nM.

Take `CNC(=O)CCCCC[C@H](NC(=O)c1cc(C)n(C)n1)c1ncc(-c2ccc(-c3ccn(C)n3)cc2)[nH]1` [Entry 216, (S)-1,5-dimethyl-N-(1-(5-(4-(1-methyl-1H-pyrazol-3-yl)phenyl)-1H-imidazol-2-yl)-7-(methylamino)-7-oxoheptyl)-1H-pyrazole-3-carboxamide]: the IC50 on human HDAC1 is greater than 5 µM. For the same molecule, in assay [1] (setting [2]), the EC50 is 1000 to 5000 nM.

With `CNC(=O)CCCCC[C@H](NC(=O)c1cc(C(C)(C)C)nn1C)c1ncc(-c2ccc(-c3ccn(C)n3)cc2)[nH]1` [Entry 217, (S)-3-(tert-butyl)-1-methyl-N-(1-(5-(4-(1-methyl-1H-pyrazol-3-yl)phenyl)-1H-imidazol-2-yl)-7-(methylamino)-7-oxoheptyl)-1H-pyrazole-5-carboxamide], the IC50 at human HDAC1 is 1 to 5 µM. This molecule came in with an EC50 in assay [1] (setting [2]) of 1000 to 5000 nM.

On to `Cn1ccc(-c2ccc(-c3cnc([C@H](CCCCCC(N)=O)NC(=O)c4cncs4)[nH]3)cc2)n1` [Entry 218, (S)-N-(7-amino-1-(5-(4-(1-methyl-1H-pyrazol-3-yl)phenyl)-1H-imidazol-2-yl)-7-oxoheptyl)thiazole-5-carboxamide], for which the IC50 on human HDAC1 is less than 1 µM. In assay [1] (setting [2]), the EC50 was less than 1000 nM.

`CNC(=O)CCCCC[C@H](NC(=O)c1cncs1)c1ncc(-c2ccc3ccnc(OC)c3c2)[nH]1` [Entry 219, (S)-N-(1-(5-(1-methoxyisoquinolin-7-yl)-1H-imidazol-2-yl)-7-(methylamino)-7-oxoheptyl)thiazole-5-carboxamide]: the half-inhibitory concentration (IC50) on human HDAC1 lay within 1 to 5 µM. In assay [1] (setting [2]), this molecule displayed an EC50 of 1000 to 5000 nM.

On to `CNC(=O)CCCCC[C@H](NS(=O)(=O)c1ccc(C#N)cc1)c1ncc(-c2cc3ccccc3nc2OC)[nH]1` [Entry 220], for which, on human HDAC1, the IC50 was less than 1 µM. In assay [1] (setting [2]), this molecule returned an EC50 of less than 1000 nM.

In the case of `CNC(=O)CCCCC[C@H](NC(=O)c1cncs1)c1ncc(-c2ccc(-c3ccn[nH]3)cc2)[nH]1` [Entry 221, (S)-N-(1-(5-(4-(1H-pyrazol-5-yl)phenyl)-1H-imidazol-2-yl)-7-(methylamino)-7-oxoheptyl)thiazole-5-carboxamide], the half-maximal inhibitory concentration (IC50) on human HDAC1 is 1 to 5 µM. Further, in assay [1] (setting [2]), the EC50 was less than 1000 nM.

As for `CNC(=O)CCCCC[C@H](NC(=O)c1cncs1)c1ncc(-c2ccc(-c3ccn(C)n3)cc2)o1` [Entry 222, (S)-N-(1-(5-(4-(1-methyl-1H-pyrazol-3-yl)phenyl)oxazol-2-yl)-7-(methylamino)-7-oxoheptyl)thiazole-5-carboxamide], the IC50 at human HDAC1 is greater than 5 µM. Moreover, the EC50 in assay [1] (setting [2]) is 1000 to 5000 nM.

For the molecule `CNC(=O)CCCCC[C@H](NC(=O)c1cnn(C(C)C)c1)c1ncc(-c2ccc(-c3ccn(C)n3)cc2)o1` [Entry 223, (S)-1-isopropyl-N-(1-(5-(4-(1-methyl-1H-pyrazol-3-yl)phenyl)oxazol-2-yl)-7-(methylamino)-7-oxoheptyl)-1H-pyrazole-4-carboxamide], the IC50 on human HDAC1 was greater than 5 µM. Further, the EC50 in assay [1] (setting [2]) was in the range of 1000 to 5000 nM.

Take `CNC(=O)CCCCC[C@H](NC(=O)c1cnn(C)c1)c1ncc(-c2ccc(-c3ccn(C)n3)cc2)o1` [Entry 224, (S)-1-methyl-N-(1-(5-(4-(1-methyl-1H-pyrazol-3-yl)phenyl)oxazol-2-yl)-7-(methylamino)-7-oxoheptyl)-1H-pyrazole-4-carboxamide]: on human HDAC1, the IC50 is greater than 5 µM. The molecule also came in with an EC50 in assay [1] (setting [2]) of 1000 to 5000 nM.

Turning to `CNC(=O)CCCCC[C@H](NC(=O)c1cnc(C)s1)c1ncc(-c2ccc(-c3ccn(C)n3)cc2)o1` [Entry 225, (S)-2-methyl-N-(1-(5-(4-(1-methyl-1H-pyrazol-3-yl)phenyl)oxazol-2-yl)-7-(methylamino)-7-oxoheptyl)thiazole-5-carboxamide], the IC50 at human HDAC1 is greater than 5 µM. The molecule further gave an EC50 in assay [1] (setting [2]) of 1000 to 5000 nM.

Consider `CNC(=O)CCCCC[C@H](NC(=O)c1cnsc1)c1ncc(-c2ccc(-c3ccn(C)n3)cc2)o1` [Entry 226, (S)-N-(1-(5-(4-(1-methyl-1H-pyrazol-3-yl)phenyl)oxazol-2-yl)-7-(methylamino)-7-oxoheptyl)isothiazole-4-carboxamide], for which the IC50 on human HDAC1 was greater than 5 µM. The molecule further returned an EC50 in assay [1] (setting [2]) of 1000 to 5000 nM.

With `CNC(=O)CCCCC[C@H](NC(=O)C12CCN(CC1)CC2)c1ncc(-c2ccc3ccccc3c2)[nH]1` [compound 126, (S)-N-(7-(methylamino)-1-(5-(naphthalen-2-yl)-1H-imidazol-2-yl)-7-oxo-heptyl)quinuclidine-4-carboxamide], the IC50 at human HDAC1 is less than 1 µM. Also, the EC50 was less than 1000 nM in assay [1] (setting [2]) and 293 nM in assay [1] (P. falciparum 3D7, n=11).
